Results: US20260097049A1, “C[…] AND METHODS OF USE FOR TREATMENT AND PREVENTION OF CANCER” (BlackStone Therapeutics, LLC, priority 2022, published 2026)

Key:
[1] = test system: AsPC-1; experiment: CellTiterGlo cell viability, AsPC-1 cells; assay type: cell-based; settings: Homo sapiens, ASPC1, 72 h
Experimental: The IC50 values for (R)-H4CBD, (S)-H4CBD, H4CBDV racemic mixture, and bortezomib were determined. Compound treatment of cells started one day after seeding with a final DMSO concentration of 0.1% and was performed by nanodrop-dispensing using a Tecan Dispenser. 0.1% DMSO (solvent) and Staurosporine (1,0E-05M) served as high control (100% viability) and low control (0% viability), respectively. For the assays, cells were seeded in white cell culture-treated flat and clear bottom multiwell plates and incubated at 37° C. overnight before compounds were added. After incubation for 72 h at 37° C. at 5% or 10% CO2 dependent on the medium, cell plates were equilibrated to room temperature for one hour, CellTiterGlo reagent (Promega) was added and luminescence was measured approximately an hour later using a luminometer.
Raw data were converted into percent cell viability relative to the high and low control, which were set to 100% and 0%, respectively. IC50 calculation was performed using GraphPad Prism software with a variable slope sigmoidal response fitting model using 0% viability as bottom constraint and 100% viability as top constraint. IC50 results in PANC-1, MIA-PaCa2, and AsPC-1 cells for (R)-H4CBD, (S)-H4CBD, H4CBDV racemic mixture, and bortezomib are shown in FIGS. 10-12 and Table 2

[2] = test system: MiaPaca cells xenograft; experiment: Miapaca cell xenograft study; assay type: in vivo, SCID mice
Experimental: Animal housing and environment: Female SCID mice will be housed in individually ventilated cages in a controlled environment (temperature 22±2° C., humidity 30-70%, and 12 h light/12 h dark cycle). Acclimatization of animals: Mice will be acclimated for 2-4 days. For the study, the required number of SCID mice will be allocated and housed separately in the experimental area. Food and water for animals: The mice will have access to commercially available sterile feed pellets and sterile potable water ad libitum. Identification of animals: 4 mice will be housed per individually ventilated cage. Each animal in the cage will be identified by ear punch. These cages will be numbered thus making the animal identification easy. Ethical approvals: All animal experiments will be carried out in accordance with the guidelines of the guide for animal welfare and with the approval of the IACUC WSU. Population per group: 9 mice per group (6 for efficacy and 3 for residual tumor analysis).
Miapaca cells were xenograft into the mice. 7 days after transplantation, the mice were untreated (administered a vehicle control), administered CCL-104 intravenously (15.4 mg/kg) or orally (31 mg/kg), or administered CCL-106, intravenously (20 mg/kg) or orally (31 mg/kg). At necropsy, tumors were excised for IHC, immunoblotting and RNA isolation for suppression proliferation related signaling molecules.

[3] = test system: PANC-1, HPAF-II, AsPC-1, and MIA-PaCa2; experiment: Cell killing against various cancer cell lines; assay type: cell-based; settings: all cancer cells tested
Experimental: Various compounds, including (R)-H4CBD and (S)-H4CBD, and H4CBDV racemic mixture, were tested for cell killing against various cancer cell lines, including PANC-1, HPAF-II, AsPC-1, and MIA-PaCa2.

Question: Which IC50 [1] does the source give for `CCCc1cc(O)c(C2CC(C)CCC2C(C)C)c(O)c1` (racemic) [CCL-106, hexahydrocannabidivarin] here?
Answer: Its IC50 is 1.05 µM.

Question: And the “reduction of final tumor weight (dot graph)” value ([2]; IV 20 mg/kg)?
Answer: The value was 27.0%.

Question: What about the “reduction of mean of the final tumor weight (bar graph)” value ([2]; IV 20 mg/kg) of the same compound?
Answer: The value was 24.2%.

Question: What about the “reduction of final tumor weight (dot graph)” value ([2]; PO 31 mg/kg) of the same compound?
Answer: Its value is 50.8%.

Question: And the “reduction of mean of the final tumor weight (bar graph)” value ([2]; PO 31 mg/kg)?
Answer: The value was 50.79%.

Question: And the “tumor size compared to the untreated control” value ([2]; treated intravenously or orally, FIGS. 54-55)?
Answer: The value was “smaller tumors compared to the untreated control”.

Question: And the “cytotoxicity against cancer cells” value [3]?
Answer: Its value is “shows cytotoxicity against all cancer cells tested”.
